Laboratory results from patent publication US20200239530A1, “COMPOUNDS AND METHODS OF MODULATING PROTEIN DEGRADATION” (Vividion Therapeutics, Inc., priority 2017, published 2020).
Like-named read-outs stand apart in the source and are kept apart here.

Tests used:
[1] = biological target: T1, TRIM71 E3 ubiquitin-protein ligase TRIM71 (Homo sapiens, UniProt Q2Q1W2); assay: Cysteine liganding, probe competition; format: binding
T1 construct: Cells were resuspended in cold PBS on ice and sonicated with a probe sonicator to achieve lysis; endogenous in cells
T1 sequence (Q2Q1W2 1-868): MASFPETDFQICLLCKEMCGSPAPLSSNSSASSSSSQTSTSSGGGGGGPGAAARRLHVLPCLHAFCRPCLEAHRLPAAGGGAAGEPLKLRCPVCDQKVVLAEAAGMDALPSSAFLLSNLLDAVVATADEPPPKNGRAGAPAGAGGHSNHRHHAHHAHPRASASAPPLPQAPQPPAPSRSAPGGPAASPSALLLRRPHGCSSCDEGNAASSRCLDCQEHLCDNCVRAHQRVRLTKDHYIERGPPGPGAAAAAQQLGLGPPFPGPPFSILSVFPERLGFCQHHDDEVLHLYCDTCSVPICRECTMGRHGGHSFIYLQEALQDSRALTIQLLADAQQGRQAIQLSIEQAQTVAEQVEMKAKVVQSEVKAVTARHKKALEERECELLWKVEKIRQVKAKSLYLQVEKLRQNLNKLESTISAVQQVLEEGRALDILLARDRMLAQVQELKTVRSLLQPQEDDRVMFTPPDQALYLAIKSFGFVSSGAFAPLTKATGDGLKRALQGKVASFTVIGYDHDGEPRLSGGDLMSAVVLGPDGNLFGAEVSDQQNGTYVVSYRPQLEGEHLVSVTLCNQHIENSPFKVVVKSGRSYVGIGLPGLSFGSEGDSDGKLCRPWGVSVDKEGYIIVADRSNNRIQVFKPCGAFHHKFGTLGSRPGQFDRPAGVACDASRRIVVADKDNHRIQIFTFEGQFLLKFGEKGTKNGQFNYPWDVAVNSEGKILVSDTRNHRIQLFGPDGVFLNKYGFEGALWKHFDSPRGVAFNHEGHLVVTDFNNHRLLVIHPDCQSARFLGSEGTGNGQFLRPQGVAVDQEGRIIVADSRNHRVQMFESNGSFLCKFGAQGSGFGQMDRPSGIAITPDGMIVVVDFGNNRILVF
Description: (§1) Cells were resuspended in cold PBS on ice and sonicated with a probe sonicator to achieve lysis. 200 μL of lysate containing 5 mg/ml proteome was treated with 2 μL of 100× compound stock in a 2-mL deep-well plate. The treated lysate was subsequently incubate at 25° C. for 1 hr with shaking at 600 rpm. The treated lysate was further incubated with 2 μL of 10 mM desthiobiotin iodoacetamide probe at 25° C. for 1 hr with shaking at 600 rpm. Next, the lysate was further treat with 20 μL of solution of PBS containing 11 mM MgSO4 and 2.5% Turbonuclease stock and incubated at 25° C. for 20 minutes with shaking at 600 rpm. 1.7 mL ice-cold acetone was added to each well and incubated at −20° C. for 2 hr, followed by max speed (4200 rpm) spin for 45 min. Acetone was then decanted and the plates were blotted to remove acetone. The plates were then dried in open air for 20 minutes. After drying, the plates were then covered with foil seal and stored at −80° C. overnight.
(§2) The next day, samples were re-suspended in 90 μL of solution of 9M urea, 50 mM ammonium bicarbonate and 10 mM DTT by incubating at 65C for 20 min with shaking at 1500 rpm. Next, samples were cooled to 37° C. and then 10 μL of 500 mM iodoacetamide solution (92.48 mg/ml) was added. The samples were then incubated at 37° C. for 30 min with shaking at 600 rpm.
(§3) ZEBA desalting plates were equilibrated 4 times using 250 μL of 2M urea, 50 mM ammonium bicarbonate solution followed by centrifugation at 1500 rpm for 2 minutes. After equilibration was complete, samples were applied to ZEBA desalting plate and spin at 1500 rpm for 2 min on top of 1 mL 96-well deep-well collection plate to buffer exchange samples. 4 μL of solution containing 25 mM CaCl2 and 0.25 mg/mL trypsin was added to the plate and the plate was then incubated at 37° C. for 2 hrs with shaking at 600 rpm. 300 μL of solution containing 5% high-capacity streptavidin agarose slurry in 25 mM Tris-HCl pH 7.5, 150 mM NaCl, and 0.1% NP-40 then added. The plate was incubated at 25° C. for 2 hrs with shaking at 600 rpm. Samples were transferred to 25 μm filter plate and spin at 1000 rpm for 2 min. Samples were then washed 3 times with 0.75 mL of wash buffer (25 mM Tris-HCl pH 7.5, 150 mM NaCl, and 0.1% NP-40) followed by washing 3 times with 0.75 mL PBS, and then 4 times with 0.75 mL water. After the washing step, samples were eluted into polypropylene 96-well plate by addition of 250 µL of 50% MeCN/water, 0.1% formic acid and allowed to gravity drip for 10 min, followed by centrifugation at 1000 rpm for 2 min. Speedvac was used to dry the plates at about 45° C. for […]. Then the plates were covered with foil seal and stored at −20° C.
(§4) Samples were resuspended by addition of 20 μl of 12.5% ACN, 0.1% formic acid solution, covered with foil seal, and incubated at 42° C. for 10 minutes with shaking at 600 rpm. Then add 30 μL of 0.1% formic acid solution was added and the plate was covered and incubated at 42° C. for 10 minutes with shaking at 600 rpm. Seal plate was then sealed with a 96-well silicon mat for analysis.

[2] = biological target: T2, PCGF2 Polycomb group RING finger protein 2 (Homo sapiens, UniProt P35227); assay: Cysteine liganding, probe competition; format: binding
T2 construct: Cells were resuspended in cold PBS on ice and sonicated with a probe sonicator to achieve lysis; endogenous in cells
T2 sequence (P35227 1-344): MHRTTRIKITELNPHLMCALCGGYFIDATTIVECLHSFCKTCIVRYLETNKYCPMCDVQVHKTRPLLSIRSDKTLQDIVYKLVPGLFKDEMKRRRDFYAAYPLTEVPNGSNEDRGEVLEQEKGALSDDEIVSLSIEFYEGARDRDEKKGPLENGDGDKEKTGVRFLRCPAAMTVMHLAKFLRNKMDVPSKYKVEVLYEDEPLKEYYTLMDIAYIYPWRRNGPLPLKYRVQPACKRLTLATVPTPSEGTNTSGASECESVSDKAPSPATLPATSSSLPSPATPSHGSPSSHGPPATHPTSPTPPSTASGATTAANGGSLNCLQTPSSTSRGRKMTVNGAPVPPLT
Description: as §1, §2, §3, §4

COc1ccc2c(c1)CCCN2C(=O)CCl [KB02]
inhibition at 100 µM ([1]; 100 uM, UniProt Q2Q1W2, read-out: KB02_100 uM_percent_inhibition): 39% | Liganded ([1]; TRIM71 Res# 636, uniprot Q2Q1W2): YES | Liganded ([2]; PCGF2 Res# 233, uniprot P35227): YES

C=CC(=O)N(c1ccccc1)c1ccc(Br)cc1 [KB05]
inhibition at 100 µM ([1]; 100 uM, UniProt Q2Q1W2, read-out: KB05_100 uM_percent_inhibition): 5% | KB05_100 uM_percent_inhibition ([2]; UniProt P35227, 100 uM): 29% | inhibition at 100 µM ([2]; UniProt P35227, 100 uM, read-out: KB05_100 uM_percent_inhibition): 28%

O=C(CCl)Nc1cc(C(F)(F)F)cc(C(F)(F)F)c1 [KBO3]
KB03_100 uM_percent_inhibition ([1]; 100 uM, UniProt Q2Q1W2): 17% | 100 Max ([1]; uniprot Q2Q1W2): 17.2 | 100 ave ([1]; uniprot Q2Q1W2): 17.2 | 500 Max ([1]; uniprot Q2Q1W2): 64.2 | 500 ave ([1]; uniprot Q2Q1W2): 64.2 | KB03_100 uM_percent_inhibition ([2]; UniProt P35227, 100 uM): 37% | 100 ave ([2]; uniprot P35227): −4.4 | 500 ave ([2]; uniprot P35227): 35.9 | 100 Max ([2]; uniprot P35227, unit assumed): 5.9% | 500 Max ([2]; uniprot P35227, unit assumed): 49.9%
